Here are results for two molecules from patent publication US6387415B1, “Sequestered metal biocides using ionic polymeric stabilizing agents” (Bio-Lab, Inc., priority 1995, dated 2002).

Where two headings read alike, the source gives them in different places.

Assay type in all cases: cell-based
Assay [1] deals with S. aureus. Briefly: MIC study against bacteria on microtiter plates. On the set-up: key: (−) indicates no bacterial growth was seen; (+) indicates bacterial growth was seen. The method, then:
(§1) MIC data gives the minimum concentration of biocide needed to prevent growth of bacteria in a culture. Individual MIC's were determined by screening on microtiter plates. In order to determine the MIC's, 50 μl of phosphate water is added to each row in columns 2-12. Next, 100 μl of a biocide is added to column […]). Fifty microliters of the biocide is removed from column 1 and serially diluted from columns 2-11 using an eight tip pipettor (octapette). Finally, 50 μl of microbial inoculum is added to columns 1-11 (all rows) and column 12 (row A and E only). Column 12 serves as the row for sterility and viability controls. Bacterial inoculua contain about 1×10^9 colony forming units (cfu) per ml are prepared in 1⁄5 strength Nutrient broth. Bacterial microtiter plates are incubated at 37° C. for 48 hours. MIC's are determined by visual observation of the plates.

Assay [2] relates to E. Coli. Briefly: MIC study against bacteria on microtiter plates. Set-up: key: (−) indicates no bacterial growth was seen; (+) indicates bacterial growth was seen. How it is done:
as §1

For assay [3], the system named is Phormidium sp. Briefly: MIC study against algae (visual growth after two weeks). On the set-up: key: (−) indicates no algae growth was seen; (+) indicates algae growth was seen. The method, then:
(§2) MIC data gives the minimum concentration of biocide needed to prevent growth of the algae in a culture.
(§3) The MIC studies are performed in sterile glassware using both viability and sterility controls. An algae suspension is added to test tubes containing the appropriate amounts of test biocide and the tubes are incubated for two weeks under fluorescent lights (on a “12 hour on”/“12 hour off” lighting regimen). The cultures are then measured by visual observation to determine the presence of living algae.

Assay [4] deals with Phormidium inudatum. The description is as above. On the set-up: key: (−) indicates no algae growth was seen; (+) indicates algae growth was seen. How it is done: as §2, §3
Assay [5] deals with Chlorella sp. The description is as above. On the set-up: key: (−) indicates no algae growth was seen; (+) indicates algae growth was seen. The method, then:
as §2, §3

For `[Ag]` [Unsequestered Silver], the “bacterial growth, MIC results against S. aureus” value is given as “+” in assay [1] (Silver Conc. 0.39 ppm); “+” in assay [1] (Silver Conc. 0.78 ppm); “−” in assay [1] (Silver Conc. 1.56 ppm); “−” in assay [1] (Silver Conc. 12.5 ppm); “−” in assay [1] (Silver Conc. 25 ppm). Besides, the “bacterial growth, MIC results against E. Coli” value in assay [2] (Silver Conc. 0.39 ppm) is recorded as “+”; in assay [2] (Silver Conc. 1.56 ppm), “+”; in assay [2] (Silver Conc. 3.1 ppm) it was “−”; in assay [2] (Silver Conc. 12.5 ppm) it was “−”; in assay [2] (Silver Conc. 25 ppm), “−”.
`O=S(=O)([O-])[O-].[Cu+2]` [Unsequestered Copper, copper sulfate]: the “bacterial growth, MIC results against S. aureus” value in assay [1] was “− and +”. Besides, in assay [2], the “bacterial growth, MIC results against E. Coli” value is “− and +”. Moreover, the “algae growth, MIC results against Phormidium sp.” value in assay [3] is reported as “−”. Also, the “algae growth, MIC results against Phormidium inudatum” value in assay [4] is “−”. Also, in assay [5], the “algae growth, MIC results against Chlorella sp.” value was “−”.
